According to patent US10370366B2 (Flatley Discovery Lab, LLC, priority 2013, dated 2019):

The molecules below were run against T1, human F508del CFTR (Homo sapiens, UniProt P13569, DEL508-508) (assay: CFTR-YFP High Throughput Assay). Conditions: EMax normalized to the positive control; FRT cells expressing human F508del CFTR and YFP; read-out: % Efficacy.
T1 construct: expressed in transfected cells; host or cells: Fisher Rat Thyroid (FRT) cells
Format: cell-based
Outline: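 FRT cells stably co-expressing human F508del CFTR and halide-sensitive YFP-H148Q/I152L; for correction, compound (2 nM-40 μM) incubated 24-26 h at 37° C, washed, then stimulated 60-120 min at RT with 20 μM forskolin plus 30 μM potentiator P3. Iodide-induced YFP quench (Ex 500/Em 540 nm) recorded; quench rates least-squares fitted.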

T1 sequence (P13569 with tags, fused parts or gaps DEL508-508): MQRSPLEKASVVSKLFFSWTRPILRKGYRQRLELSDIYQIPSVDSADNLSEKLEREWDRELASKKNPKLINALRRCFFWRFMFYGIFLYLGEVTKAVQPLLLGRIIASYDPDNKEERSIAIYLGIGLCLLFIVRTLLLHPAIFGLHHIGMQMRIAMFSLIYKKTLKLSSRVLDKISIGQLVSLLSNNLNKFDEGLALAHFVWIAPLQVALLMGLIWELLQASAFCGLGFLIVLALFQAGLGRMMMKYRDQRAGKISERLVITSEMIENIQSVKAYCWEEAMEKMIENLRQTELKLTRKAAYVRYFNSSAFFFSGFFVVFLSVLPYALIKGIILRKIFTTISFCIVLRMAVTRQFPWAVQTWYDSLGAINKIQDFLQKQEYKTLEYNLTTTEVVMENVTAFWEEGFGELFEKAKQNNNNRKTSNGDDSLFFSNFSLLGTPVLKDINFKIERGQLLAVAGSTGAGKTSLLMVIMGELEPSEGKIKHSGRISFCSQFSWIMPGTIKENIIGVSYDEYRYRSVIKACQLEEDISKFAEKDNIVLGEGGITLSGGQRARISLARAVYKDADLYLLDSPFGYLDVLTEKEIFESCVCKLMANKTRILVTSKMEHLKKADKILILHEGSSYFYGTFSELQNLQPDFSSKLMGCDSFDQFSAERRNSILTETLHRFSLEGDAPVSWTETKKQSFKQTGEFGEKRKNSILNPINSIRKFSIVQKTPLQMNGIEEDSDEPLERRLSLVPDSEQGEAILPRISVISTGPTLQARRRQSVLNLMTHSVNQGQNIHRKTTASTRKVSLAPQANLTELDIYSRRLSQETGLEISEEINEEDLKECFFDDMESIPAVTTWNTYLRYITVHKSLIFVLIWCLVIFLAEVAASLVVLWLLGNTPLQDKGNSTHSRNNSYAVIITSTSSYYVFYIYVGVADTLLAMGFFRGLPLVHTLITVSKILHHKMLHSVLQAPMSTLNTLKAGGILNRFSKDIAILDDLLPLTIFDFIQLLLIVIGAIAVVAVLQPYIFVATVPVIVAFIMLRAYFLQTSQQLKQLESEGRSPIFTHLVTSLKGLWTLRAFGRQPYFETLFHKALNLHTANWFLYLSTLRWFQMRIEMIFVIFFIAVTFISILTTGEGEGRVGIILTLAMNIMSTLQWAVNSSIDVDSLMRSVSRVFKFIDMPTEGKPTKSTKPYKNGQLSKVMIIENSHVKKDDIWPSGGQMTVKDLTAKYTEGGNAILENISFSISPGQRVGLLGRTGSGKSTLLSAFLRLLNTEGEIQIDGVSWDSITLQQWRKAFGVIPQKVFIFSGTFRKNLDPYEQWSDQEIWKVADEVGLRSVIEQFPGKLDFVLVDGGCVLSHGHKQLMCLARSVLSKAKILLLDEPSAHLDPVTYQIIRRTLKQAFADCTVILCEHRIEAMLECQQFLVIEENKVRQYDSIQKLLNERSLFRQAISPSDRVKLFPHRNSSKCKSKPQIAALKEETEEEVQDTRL

`Cc1ccc(-n2nc(C(=O)N3CCCCC3)c3c4ccccc4n(C)c3c2=O)cc1` [Example 150, 5-methyl-1-(piperidine-1-carbonyl)-3-p-tolyl-3H-pyridazino [4,5-b]indol-4(5H)-one] and `Cc1ccc(-n2nc(C(=O)N3CCN(Cc4ccccc4)CC3)c3c4ccccc4n(C)c3c2=O)cc1` [Example 161, 1-(4-benzylpiperazine-1-carbonyl)-5-methyl-3-(p-tolyl)-3H-pyridazino[4,5-b]indol-4(5H)-one] fall in the same range of Emax: 30 to 80% for the first, 30 to 80% for the second.

`CCN(C(=O)c1nn(-c2ccccc2)c(=O)c2c1c1ccccc1n2C)c1ccncn1` [Example 151, N-ethyl-5-methyl-4-oxo-3-phenyl-N-(pyrimidin-4-yl)-4,5-dihydro-3H-pyridazino[4,5-b]indole-1-carboxamide] and `CCN(C(=O)c1nn(-c2ccccc2)c(=O)c2c1c1ccccc1n2C)c1ccncc1` [Example 158, N-ethyl-5-methyl-4-oxo-3-phenyl-N-(pyridin-4-yl)-4,5-dihydro-3H-pyridazino[4,5-b]indole-1-carboxamide] fall in the same range of Emax: 30 to 80% for the first, 30 to 80% for the second.

`Cc1ccc(-n2nc(C(=O)N(c3ccccc3)C(C)C)c3c4ccccc4n(C)c3c2=O)cc1` [Example 152, N-isopropyl-5-methyl-4-oxo-N-phenyl-3-(p-tolyl)-4,5-dihydro-3H-pyridazino[4,5-b]indole-1-carboxamide] and `Cc1ccc(-n2nc(C(=O)N(c3ccccc3)C3CC3)c3c4ccccc4n(C)c3c2=O)cc1` [Example 153, N-cyclopropyl-5-methyl-4-oxo-N-phenyl-3-(p-tolyl)-4,5-dihydro-3H-pyridazino[4,5-b]indole-1-carboxamide] fall in the same range of Emax: 30 to 80% for the first, 30 to 80% for the second.

`Cc1ccc(-n2nc(C(=O)N(CC#N)c3ccccc3)c3c4ccccc4n(C)c3c2=O)cc1` [Example 154, N-(cyanomethyl)-5-methyl-4-oxo-N-phenyl-3-(p-tolyl)-4,5-dihydro-3H-pyridazino[4,5-b]indole-1-carboxamide] and `Cc1ccc(-n2nc(C(=O)N(CC(=O)O)c3ccccc3)c3c4ccccc4n(C)c3c2=O)cc1` [Example 163, 2-(5-methyl-4-oxo-N-phenyl-3-(p-tolyl)-4,5-dihydro-3H-pyridazino[4,5-b]indole-1-carboxamido)acetic acid] fall in the same range of Emax: 30 to 80% for the first, 30 to 80% for the second.

`CCN(CC)C(=O)c1nn(-c2ccc(C)cc2)c(=O)c2c1c1ccccc1n2C` [Example 155, N, N-diethyl-5-methyl-4-oxo-3-(p-tolyl)-4,5-dihydro-3H-pyridazino[4,5-b]indole-1-carboxamide] and `CCN(C(=O)c1nn(-c2ccc(C)cc2)c(=O)c2c1c1ccccc1n2C)C1CC1` [Example 160, N-cyclopropyl-N-ethyl-5-methyl-4-oxo-3-(p-tolyl)-4,5-dihydro-3H-pyridazino[4,5-b]indole-1-carboxamide] fall in the same range of Emax: 30 to 80% for the first, 30 to 80% for the second.

`CCN(C(=O)c1nn(-c2ccc(C)cc2)c(=O)c2c1c1ccccc1n2C)c1ccccn1` [Example 156, N-ethyl-5-methyl-4-oxo-N-(pyridin-2-yl)-3-(p-tolyl)-4,5-dihydro-3H-pyridazino[4,5-b]indole-1-carboxamide] and `CCN(C(=O)c1nn(-c2ccc(C)cc2)c(=O)c2c1c1ccccc1n2C)c1cccnc1` [Example 157, N-ethyl-5-methyl-4-oxo-N-(pyridin-3-yl)-3-(p-tolyl)-4,5-dihydro-3H-pyridazino[4,5-b]indole-1-carboxamide] fall in the same range of Emax: 30 to 80% for the first, 30 to 80% for the second.

`Cc1ccc(-n2nc(C(=O)N3CCCc4ccccc43)c3c4ccccc4n(C)c3c2=O)cc1` [Example 159, 5-methyl-1-(1,2,3,4-tetrahydroquinoline-1-carbonyl)-3-(p-tolyl)-3H-pyridazino[4,5-b]indol-4(5H)-one] and `CCN(C(=O)c1nn(-c2ccc(C)cc2)c(=O)c2c1c1cc(Cl)ccc1n2C)c1ccccc1` [Example 165, 8-chloro-N-ethyl-5-methyl-4-oxo-N-phenyl-3-(p-tolyl)-4,5-dihydro-3H-pyridazino[4,5-b]indole-1-carboxamide] fall in the same range of Emax: 30 to 80% for the first, 30 to 80% for the second.

First: CCN(C(=O)c1nn(-c2ccccc2)c(=O)c2c1c1ccccc1n2C)c1ncccn1 [Example 162, N-ethyl-5-methyl-4-oxo-3-phenyl-N-(pyrimidin-2-yl)-4,5-dihydro-3H-pyridazino[4,5-b]indole-1-carboxamide]
Second: CCN(C(=O)c1nn(-c2ncccn2)c(=O)c2c1c1ccccc1n2C)c1ccccc1 [Example 171, N-ethyl-5-methyl-4-oxo-N-phenyl-3-(pyrimidin-2-yl)-4,5-dihydro-3H-pyridazino[4,5-b]indole-1-carboxamide]
The Emax of the first is higher: 30 to 80% for the first, 10 to 30% for the second.

`CCN(C(=O)c1nn(-c2ccccc2)c(=O)c2c1c1ccccc1n2C)c1ncnc2c1cnn2C` [Example 164, N-ethyl-5-methyl-N-(1-methyl-1H-pyrazolo[3,4-d]pyrimidin-4-yl)-4-oxo-3-phenyl-4,5-dihydro-3H-pyridazino[4,5-b]indole-1-carboxamide] and `CCN(C(=O)c1nn(-c2ccccc2)c(=O)c2c1c1ccccc1n2C)c1cccc(F)c1` [Example 175, N-ethyl-N-(3-fluorophenyl)-5-methyl-4-oxo-3-phenyl-4,5-dihydro-3H-pyridazino[4,5-b]indole-1-carboxamide] fall in the same range of Emax: 30 to 80% for the first, 30 to 80% for the second.

`CCN(C(=O)c1nn(-c2ccc(C)cc2)c(=O)c2c1c1ccc(Cl)cc1n2C)c1ccccc1` [Example 166, 7-chloro-N-ethyl-5-methyl-4-oxo-N-phenyl-3-(p-tolyl)-4,5-dihydro-3H-pyridazino[4,5-b]indole-1-carboxamide] and `CCN(C(=O)c1nn(-c2ccncc2)c(=O)c2c1c1ccccc1n2C)c1ccccc1` [Example 169, N-ethyl-5-methyl-4-oxo-N-phenyl-3-(pyridin-4-yl)-4,5-dihydro-3H-pyridazino[4,5-b]indole-1-carboxamide] fall in the same range of Emax: 30 to 80% for the first, 30 to 80% for the second.

`CCN(C(=O)c1nn(-c2ccccn2)c(=O)c2c1c1ccccc1n2C)c1ccccc1` [Example 167, N-ethyl-5-methyl-4-oxo-N-phenyl-3-(pyridin-2-yl)-4,5-dihydro-3H-pyridazino[4,5-b]indole-1-carboxamide] and `CCN(C(=O)c1nn(-c2cccnc2)c(=O)c2c1c1ccccc1n2C)c1ccccc1` [Example 168] fall in the same range of Emax: 30 to 80% for the first, 30 to 80% for the second.

Compared with `CCN(C(=O)c1nn(-c2nccs2)c(=O)c2c1c1ccccc1n2C)c1ccccc1` [Example 170, N-ethyl-5-methyl-4-oxo-N-phenyl-3-(thiazol-2-yl)-4,5-dihydro-3H-pyridazino[4,5-b]indole-1-carboxamide], `CCN(C(=O)c1nn(-c2nc3ccccc3s2)c(=O)c2c1c1ccccc1n2C)c1ccccc1` [Example 172, 3-(benzo[d]thiazol-2-yl)-N-ethyl-5-methyl-4-oxo-N-phenyl-4,5-dihydro-3H-pyridazino[4,5-b]indole-1-carboxamide] is lower in Emax: 30 to 80% for the first, 10 to 30% for the second.

First: CCN(C(=O)c1nn(-c2nc3ccccc3n2C)c(=O)c2c1c1ccccc1n2C)c1ccccc1 [Example 173, N-ethyl-5-methyl-3-(1-methyl-1H-benzo[d]imidazol-2-yl)-4-oxo-N-phenyl-4,5-dihydro-3H-pyridazino[4,5-b]indole-1-carboxamide]
Second: CCN(C(=O)c1nn(-c2ccccc2F)c(=O)c2c1c1ccccc1n2C)c1ccccc1 [Example 174, N-ethyl-3-(2-fluorophenyl)-5-methyl-4-oxo-N-phenyl-4,5-dihydro-3H-pyridazino[4,5-b]indole-1-carboxamide]
The Emax of the first is lower: 10 to 30% for the first, 30 to 80% for the second.

Same assay, conditions: FRT cells expressing human F508del CFTR and YFP

`CCN(C(=O)c1nn(-c2ccc(C)cc2)c(=O)c2c1c1cc(Cl)ccc1n2C)c1ccccc1` [Example 165, 8-chloro-N-ethyl-5-methyl-4-oxo-N-phenyl-3-(p-tolyl)-4,5-dihydro-3H-pyridazino[4,5-b]indole-1-carboxamide] and `CCN(C(=O)c1nn(-c2ccc(C)cc2)c(=O)c2c1c1ccc(Cl)cc1n2C)c1ccccc1` [Example 166, 7-chloro-N-ethyl-5-methyl-4-oxo-N-phenyl-3-(p-tolyl)-4,5-dihydro-3H-pyridazino[4,5-b]indole-1-carboxamide] cannot be ordered by EC50: less than 10 µM for the first, less than 10 µM for the second.

`CCN(C(=O)c1nn(-c2ncccn2)c(=O)c2c1c1ccccc1n2C)c1ccccc1` [Example 171, N-ethyl-5-methyl-4-oxo-N-phenyl-3-(pyrimidin-2-yl)-4,5-dihydro-3H-pyridazino[4,5-b]indole-1-carboxamide] and `CCN(C(=O)c1nn(-c2ccccc2)c(=O)c2c1c1ccccc1n2C)c1cccc(F)c1` [Example 175, N-ethyl-N-(3-fluorophenyl)-5-methyl-4-oxo-3-phenyl-4,5-dihydro-3H-pyridazino[4,5-b]indole-1-carboxamide] cannot be ordered by EC50: greater than 20 µM for the first, greater than 20 µM for the second.
